PMC3763859 (ACS medicinal chemistry letters, 2013)

Tested on: SK-BR-3 cells
Test: synergy studies with c-Src inhibitor 1 in SK-BR-3
Type: cell-based
Conditions: 2 μM 1, 10 nM panobinostat

Compound: Cc1[nH]c2ccccc2c1CCNCc1ccc(/C=C/C(=O)NO)cc1 [panobinostat]
- synergy with c-Src inhibitor 1: highly synergistic
